Test results from PubChem BioAssay (NCI).
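Dose response: 5 concentrations. Exposure: 48 h. Format: 96-well plates. Endpoint: linear interpolation; highest concentration if not reached. GI50 marks 50% less growth. The concentration for full growth arrest is given as TGI.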

Legend:
Experiment in all cases: growth of human tumour cells (NCI), 48 h
A498 renal = test system: A498 renal
HS 578T breast = test system: HS 578T breast
KM12 colon = test system: KM12 colon
MDA-MB-435 = test system: MDA-MB-435
MOLT-4 leukemia = test system: MOLT-4 leukemia
SW-620 colon = test system: SW-620 colon
OVCAR-4 ovarian = test system: OVCAR-4 ovarian

Row | Compound | GI50 (A498 renal) [µM] | TGI (A498 renal) [µM] | GI50 (HS 578T breast) [µM] | TGI (HS 578T breast) [µM] | GI50 (KM12 colon) [µM] | TGI (KM12 colon) [µM] | GI50 (MDA-MB-435) [µM] | TGI (MDA-MB-435) [µM] | GI50 (MOLT-4 leukemia) [µM] | TGI (MOLT-4 leukemia) [µM] | GI50 (SW-620 colon) [µM] | TGI (SW-620 colon) [µM] | GI50 (OVCAR-4 ovarian) [µM] | TGI (OVCAR-4 ovarian) [µM]
1 | O=c1c(O)cccc2cc(O)c(O)c(O)c12 | 4.16 | > 100 | 5.42 | > 100 | 26.9 | > 100 | 3.82 | > 100 | 16.9 | > 100 | 20.2 | > 100 |  | 
2 | COC(=O)c1c(O)c([N+](=O)[O-])cc2c1c1c(n2Cc2ccccc2)C(=O)c2ccccc2C1=O | 18.5 | 49 | 29.9 | 92.4 | 21.5 | 78.5 | 6.28 | 28 |  |  | 2.97 | 11.4 | 57.3 | > 100
3 | CN(C)c1ncc(-c2ccc(C(F)(F)F)cc2)c(NC2CCCCCC2)n1 | 12.4 | 29.4 | 23.1 | > 100 | 20.5 | 63.3 | 24.8 | > 100 | 14.8 | 34.7 | 15 | 37.3 | 12.9 | 56.6
4 | CC#C/C(=N\OC[C@H]1COCCN1)c1ccc2ncnc(Nc3ccc(OCc4cccc(F)c4)c(Cl)c3)c2c1 | 2.07 | 7.7 | 1.89 | 4.46 |  |  | 1.67 | 3.1 | 1.8 | 3.91 |  |  | 1.52 | 3.16
5 | COc1ccc(-c2nc(C(=O)c3ccccc3)n(CC(=O)c3ccccc3)c2-c2ccc(OC)cc2)cc1 | > 100 | > 100 | > 100 | > 100 | > 100 | > 100 | > 100 | > 100 | > 100 | > 100 | > 100 | > 100 | > 100 | > 100
6 | O=C(O)c1cc2ccccc2oc1=O |  | > 100 |  | > 100 |  | > 100 |  | > 100 |  | > 100 |  | > 100 |  | > 100
7 | CCCCCCCCCc1cc[n+](CC(=O)c2ccc([N+](=O)[O-])cc2)cc1 | 1.26 | 3.14 | 1.69 | 4.51 | 0.569 | 1.97 | 0.391 | 1.56 | 2.1 | 5.27 | 0.403 | 1.63 | 0.78 | 2.57
8 | O=C(/C=C/C=C/c1c(C2CC2)nc2ccccc2c1-c1ccc(F)cc1)c1cccs1 | 1.67 | 3.58 | 3.68 | > 100 | 1.79 | 8.05 |  |  | 1 | > 100 | 1.67 | 11.8 | 1.64 | 14.7
9 | CCN(CC)c1ccc2c(c1)Oc1nc(N)c(C#N)c(N)c1C2Sc1ccc(OC)cc1 (stereo not given) | 2.29 | 4.14 | 2.17 | 6.11 | 1.74 | 3.73 | 1.79 | 3.4 | 2.37 | 6.21 | 1.9 | 3.62 | 1.57 | 3.02
10 | O=C(O)c1cc2ccccc2c(N=Nc2cc(C(F)(F)F)ccc2Cl)c1O |  |  |  | > 100 |  | > 100 |  | > 100 |  | > 100 |  | > 100 |  | > 100
